The results in this text go back to patent US9725433B2, “Compounds as tyrosine kinase modulators” (Allergan, Inc., priority 2009, dated 2017).

This experiment concerns the target PDGFβ (Homo sapiens (Human), UniProt P09619). In words: PDGF stimulated Ca2+ signal in vitro (FLIPR, NHDF-Ad); PDGFβ cellular. It counts as cell-based. The settings on record: PDGF 10 ng/mL, amide linker compounds. How it is done: Automated FLIPR (Fluorometric Imaging Plate Reader) technology was used to screen for inhibitors of PDGF induced increases in intracellular calcium levels in fluorescent dye loaded […] cells. NHDF-Ad (Normal human dermal fibroblasts) (Lonza) were seeded in 384-well fibronectin coated black-walled plates overnight at 37° C./5% CO2. […] Cells were washed 4 times (ELx405-CW, Bio-Tek) to remove extracellular dye.

PDGFβ, sequence (P09619 33-1106): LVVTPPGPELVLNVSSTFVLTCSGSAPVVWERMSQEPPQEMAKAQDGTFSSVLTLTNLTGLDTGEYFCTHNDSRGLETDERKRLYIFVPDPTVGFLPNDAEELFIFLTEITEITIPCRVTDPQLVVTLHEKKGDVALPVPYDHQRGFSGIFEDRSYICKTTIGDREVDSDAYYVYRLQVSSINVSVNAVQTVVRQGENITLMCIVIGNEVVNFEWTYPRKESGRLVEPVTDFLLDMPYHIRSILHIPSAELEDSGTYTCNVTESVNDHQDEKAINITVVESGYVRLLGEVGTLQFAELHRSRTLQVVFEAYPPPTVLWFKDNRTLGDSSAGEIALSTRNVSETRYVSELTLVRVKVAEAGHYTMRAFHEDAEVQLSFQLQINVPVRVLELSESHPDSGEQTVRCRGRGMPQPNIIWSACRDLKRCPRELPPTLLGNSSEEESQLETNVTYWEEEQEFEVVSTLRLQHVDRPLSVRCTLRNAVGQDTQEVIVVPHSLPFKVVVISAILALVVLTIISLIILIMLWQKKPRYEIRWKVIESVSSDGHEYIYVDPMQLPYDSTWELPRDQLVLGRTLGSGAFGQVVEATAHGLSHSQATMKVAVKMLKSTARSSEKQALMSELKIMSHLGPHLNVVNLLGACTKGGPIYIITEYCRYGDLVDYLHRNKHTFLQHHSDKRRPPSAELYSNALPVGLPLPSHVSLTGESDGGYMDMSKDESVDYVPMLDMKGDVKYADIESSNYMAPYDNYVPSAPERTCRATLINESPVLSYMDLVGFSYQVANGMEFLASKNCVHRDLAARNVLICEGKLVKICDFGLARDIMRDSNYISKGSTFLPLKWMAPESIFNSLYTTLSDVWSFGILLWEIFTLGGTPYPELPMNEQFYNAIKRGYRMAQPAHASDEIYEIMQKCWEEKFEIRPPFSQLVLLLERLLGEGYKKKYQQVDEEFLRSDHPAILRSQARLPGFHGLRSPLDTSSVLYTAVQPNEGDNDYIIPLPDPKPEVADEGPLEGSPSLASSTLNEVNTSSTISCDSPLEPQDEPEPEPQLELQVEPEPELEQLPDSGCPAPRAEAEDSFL

In the case of “2,3-dihydroxypropyl 5-(4-{3-[(3-methyl-2-furoyl)amino]phenoxy}pyridin-2-yl)-1H-pyrrole-3-carboxylate [Example 21]”, the IC50 was 39 nM.

For orientation: IC50 means the concentration that inhibits the measured activity by half. A higher IC50 goes with weaker potency.
